Measured values from the supplement of paper PMC3974653.
Counter-ions that a name gives are not always drawn.

Test system: MTT (mouse pheochromocytoma)
Test: IC50 of cell viability (ATP content)
Conditions: (24 or 48 h)
Outline: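 Each well of a white 1536-well plate received 5 µl of MTT mouse pheochromocytoma cells at 200,000 cells/ml in DMEM containing 5% FBS and 1% horse serum. After overnight culture at 37°C, 5% CO2, cells were exposed for 24 or 48 hrs to 23 nl of library compound in DMSO, pinned at 8 final concentrations from 0.5 nM to 46 µM. CellTiter-Glo luminescence was read after 15 minutes, and IC50 was obtained from a four-parameter logistic fit of signals normalised to positive-control and DMSO wells.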

Row | SMILES | IC50 of cell viability
1 | C(=C\c1ccncc1)/c1ccccc1 [4-STYRYLPYRIDINE] | > 46 µM
2 | CC(C)(C)c1ccc(O)cc1 [4-T-BUTYLPHENOL FORMALDEHYDE RESIN] | > 46 µM
3 | Cc1ccc2c(Cl)cc(Cl)c(O)c2n1 [5,7-Dichloro-8-hydroxy-2-methylquinoline] | > 46 µM
4 | Cc1ccc(N)cc1O [5-Amino-o-cresol] | > 46 µM
5 | N[C@@H](Cc1c[nH]c2ccc(O)cc12)C(=O)O [5-HYDROXY-L-TRYPTOPHAN] | > 46 µM
6 | O=C1[C@@H]2C[C@@H]3C[C@H]1C[C@@](O)(C3)C2 [5-Hydroxy-2-adamantanone] | > 46 µM
7 | CN1c2c(O)nc(N)nc2NCC1CNc1ccc(C(=O)NC(CCC(=O)[O-])C(=O)[O-])cc1 (configuration not stated) [5-METHYLTETRAHYDROFOLATE SODIUM SALT] | > 46 µM
8 | COc1ccc2[nH]cc(CCN(C(C)C)C(C)C)c2c1 [5-Methoxy-N,N-diisopropyltryptamine] | > 46 µM
9 | NC(=O)N/N=C/c1ccc([N+](=O)[O-])o1 [5-Nitro-2-furaldehyde semicarbazone] | > 46 µM
10 | CC(=O)[C@H]1CC[C@H]2[C@@H]3CC[C@H]4C[C@H](O)CC[C@]4(C)[C@H]3CC[C@]12C [5-alpha-PREGNAN-3-alpha-OL-20-ONE] | > 46 µM
11 | C[C@]12CCC(=O)C[C@@H]1CC[C@@H]1[C@@H]2CC[C@]2(C)C=CC[C@@H]12 [5A-ANDROSTA-16-ENE-3-ONE] | > 46 µM
12 | C[C@]12CCC(=O)C[C@@H]1CC[C@@H]1[C@@H]2CC[C@]2(C)[C@@H](O)CC[C@@H]12 [5alpha-Androstan-17beta-ol-3-one] | > 46 µM
13 | CC(=O)[C@H]1CC[C@H]2[C@@H]3CC[C@H]4C[C@H](O)CC[C@]4(C)[C@H]3C(=O)C[C@]12C [5alpha-Pregnan-3alpha-ol-11,20-dione] | > 46 µM
14 | COc1cc2nc(O)nc(O)c2cc1OC [6,7-DIMETHOXYQUINAZOLINE-2,4(1H,3H)-DIONE] | > 46 µM
15 | CC1(C)S[C@@H]2[C@H](N)C(=O)N2[C@@H]1C(=O)O [6-AMINOPENICILLANIC ACID] | > 46 µM
16 | CCCc1cc(O)nc(S)n1 [6-Propyl-2-thiouracil] | > 46 µM
17 | C[C@H]1C[C@H]2[C@@H]3CC[C@](O)(C(=O)COC(=O)CCC(O)=O)[C@@]3(C)C[C@H](O)[C@@H]2[C@@]\4(C)/C=C\C(=O)\C=C14 [6a-Methylprednisolone 21-hemisuccinate sodium salt] | > 46 µM
18 | Cn1c(=O)c2c(ncn2CCO)n(C)c1=O [7-(beta-HYDROXYETHYL)THEOPHYLLINE] | > 46 µM
19 | Oc1cccc2cccnc12 [8-Hydroxyquinoline] | > 46 µM
20 | O=C(O)c1ccccc1O.Oc1cccc2cccnc12 [8-quinolinol and salicylic acid] | > 46 µM
21 | O=[N+]([O-])c1c2ccccc2cc2ccccc12 [9-Nitroanthracene] | > 46 µM
22 | CCCCCC(=O)O[C@@]1(CC[C@H]2[C@@H]3CCC/4=C/C(=O)CC[C@]4(C)[C@H]3CC[C@]12C)C(C)=O [17a-Hydroxyprogesterone hexanoate] | > 46 µM
23 | CC1(C(=O)O)CCC2(C)CCC3(C)C(=CC(=O)C4C5(C)CCC(O)C(C)(C)C5CCC43C)C2C1 (stereo not drawn) [18ALPHA-GLYCYRRHETINIC ACID] | > 46 µM

Row | SMILES | IC50 of cell viability
24 | C[C@]12CCC3C(CCC4=CC(=O)CC[C@@H]43)C1CCC2O (some centres not stated) [19-Norandrostenolone] | > 46 µM
25 | C[C@H](CCCC(C)(C)O)[C@H]1CC[C@H]2[C@@H]3CC=C4C[C@@H](O)CC[C@]4(C)[C@H]3CC[C@]12C [25-Hydroxycholesterol] | > 46 µM
26 | CN1CCN([C@@H](c2ccccc2)c2ccc(Cl)cc2)CC1 [(1-[(4-Chlorophenyl)phenyl-methyl]-4-methylpiperazine)] | > 46 µM
27 | COc1ccc2c(c1OC)C(=O)O[C@H]2[C@@H]1c2cc3c(cc2CCN1C)OCO3 [(1S,9R)-beta-HYDRASTINE] | > 46 µM
28 | CCc1cc(OC)c(C[C@H](C)N)cc1OC [(+)-2,5-Dimethoxy-4-ethylamphetamine] | > 46 µM
29 | COc1cc(C[C@H](C)N)c(OC)cc1C [(+)-2,5-Dimethoxy-4-methylamphetamine] | > 46 µM
30 | COc1ccc(OC)c(C[C@H](C)N)c1 [(+)-2,5-Dimethoxyamphetamine] | > 46 µM
31 | COc1cc(C[C@H](C)N)c(OC)cc1Br [(+)-4-Bromo-2,5-dimethoxyamphetamine] | > 46 µM
32 | CCN[C@@H](C)Cc1cccc(C(F)(F)F)c1 [(+)-Fenfluramine] | > 46 µM
33 | CCN(CC)C(=O)[C@H]\1CN(C)[C@@H]\2CC3=C[NH]C4=C3C(=CC=C4)C2=C1 [(+)-Lysergic] | > 46 µM
34 | C[C@]12N[C@H](Cc3ccccc31)c1ccccc12 [(+)-MK 801] | > 46 µM
35 | C[C@H]1[C@@H]2Cc3ccc(O)cc3[C@]1(C)CCN2C [(+)-Metazocine] | > 46 µM
36 | CCN[C@@H](C)Cc1ccccc1 [(+)-N-Ethylamphetamine] | > 46 µM
37 | CN1CCC[C@@H]1c1cccnc1 [(+)-NICOTINE] | > 46 µM
38 | CC(C)=CCN1CC[C@@]2(C)c3cc(O)ccc3C[C@H]1[C@@H]2C [(+)-Pentazocine] | > 46 µM
39 | C[C@H]1[C@@H]2Cc3ccc(O)cc3[C@]1(C)CCN2CCc1ccccc1 [(+)-Phenazocine] | > 46 µM
40 | COc1cc2c3cc1Oc1cc(ccc1O)C[C@@H]1c4c(cc(OC)c(O)c4Oc4ccc(cc4)C[C@@H]3N(C)CC2)CC[N+]1(C)C [(+)-TUBOCURARINE] | > 46 µM
41 | C[C@@H](N)[C@@H](O)c1ccc(O)c(O)c1 [(-)3,4-DIHYDROXYNOREPHEDRINE] | > 46 µM
42 | CC(C)(C)NC[C@H](O)COc1cccc2c1CCCC2=O [(-) -Levobunolol hydrochloride] | > 46 µM
43 | CN1C(=O)CC[C@H]1c1cccnc1 [(-)-COTININE] | > 46 µM
44 | CCCN1CCC[C@@H]2Cc3n[nH]cc3C[C@H]21 [(-)-QUINPIROLE] | > 46 µM
45 | COc1cc(CC(C)N)cc(OC)c1OC (configuration not stated) [(?)-3,4,5-Trimethoxyamphetamine] | > 46 µM
46 | CNC(C)Cc1ccc2c(c1)OCO2 (configuration not stated) [(?)-3,4-Methylenedioxymethamphetamine] | > 46 µM

Row | SMILES | IC50 of cell viability
47 | COc1cc(CC(C)N)cc2c1OCO2 (configuration not stated) [(?)-3-Methoxy-4,5-methylenedioxyamphetamine] | > 46 µM
48 | CC(CC(C#N)(c1ccccc1)c1ccccc1)N(C)C (configuration not stated) [(?)-4-Dimethylamino-2,2-diphenylvaleronitrile] | > 46 µM
49 | CCC1(CCC(C)C)C(=O)NC(=O)NC1=O [(?)-Amobarbital] | > 46 µM
50 | Clc1ccc([C@H]2CC3CCC2N3)cn1 (some centres not stated) [(?)-Epibatidine] | > 46 µM
51 | CNC(C)Cc1ccccc1 (configuration not stated) [(?)-Methamphetamine] | > 46 µM
52 | CCNC(C)Cc1ccc2c(c1)OCO2 (configuration not stated) [(?)-N-Ethyl-3,4-methylenedioxyamphetamine] | > 46 µM
53 | CC(Cc1ccc2c(c1)OCO2)NO (configuration not stated) [(?)-N-Hydroxy-3,4-methylenedioxyamphetamine] | > 46 µM
54 | CN1CCN(C2Cc3ccccc3Sc3ccc(Cl)cc32)CC1.O=C(O)/C=C\C(=O)O (configuration not stated) [(?)-Octoclothepin maleate] | > 46 µM
55 | OC1\N=C(C2=CC=CC=C2)/C3=CC(=CC=C3NC1=O)Cl (configuration not stated) [(?)-Oxazepam] | > 46 µM
56 | CC1\N=C(N)/OC1C2=CC=CC=C2 (stereo not drawn) [(?)-cis-(4RS,5SR)-2-Amino-4-methyl-5-phenyl-2-oxazoline] | > 46 µM
57 | NC/C=C/C(=O)O [(E)-4-amino-2-butenoic acid] | > 46 µM
58 | O=c1[nH]c(=O)n([C@H]2C[C@H](O)[C@@H](CO)O2)cc1/C=C/Br [(E)-5-(2-Bromovinyl)-2'-deoxyuridine] | > 46 µM
59 | CCCCCC[C@@H](CCC)C(=O)O [(R)-2-Propyloctanoic acid (Arundic Acid)] | > 46 µM
60 | CC(N)C(=O)c1ccccc1 [(R)-(+)-Cathinone] | > 46 µM
61 | CCCC1([C@H](O)C/C=C/[C@H]2[C@H](O)CC(=O)[C@@H]2CCCCCCC(=O)OC)CCC1 [(R)-Butaprost] | > 46 µM
62 | C[C@H](C1=NC=CC=C1)C/2=C(CCN(C)C)/CC3=CC=CC=C23 [(S)-(+)-Dimethindene maleate] | > 46 µM
63 | C[C@H](N)C(=O)c1ccccc1 [(S)-(-)-Cathinone] | > 46 µM
64 | CSCCC(NC(=O)[C@H](Cc1c[nH]c2ccccc12)NC(=O)CNC(=O)[C@H](CCSC)NC(=O)[C@H](Cc1ccc(O[S+](=O)([O-])O)cc1)NC(=O)[C@@H](N)CC(=O)O)C(=O)N[C@@H](CC(=O)O)C(=O)N[C@@H](Cc1ccccc1)C(N)=O (some centres not stated) [(Tyr[SO3H]27)Cholecystokinin fragment 26-33 Amide] | > 46 µM
65 | C[C@@H]1CCC[C@H](C)N1 [(cis-) Nanophine] | > 46 µM
66 | COc1ccc2c(c1OC)CN1CCc3cc4c(cc3[C@H]1C2)OCO4 [(d,l)-Tetrahydroberberine] | > 46 µM
67 | C\C1=C(/C)C(=O)\C(=C(\C)C1=O)CCCCC#CCCCC#CCO [AA-861] | > 46 µM
